According to article PMC8882856, “The affinity and selectivity of α‐adrenoceptor antagonists, antidepressants and antipsychotics for the human α2A, α2B, and α2C‐adrenoceptors and comparison with human α1 and β‐adrenoceptors” (Pharmacology Research & Perspectives, 2022):
Read-outs that look alike come from different tables or passages of the source.

Columns and labels:
[1] = biological target: human β2‐adrenoceptor (Homo sapiens, UniProt P07550); format: binding; conditions: for IC50 (log) β2: printed as log IC50 bound (negative) in the Log KD β2 column, 3H-CGP12177
Sequence of human β2‐adrenoceptor (P07550 whole entry): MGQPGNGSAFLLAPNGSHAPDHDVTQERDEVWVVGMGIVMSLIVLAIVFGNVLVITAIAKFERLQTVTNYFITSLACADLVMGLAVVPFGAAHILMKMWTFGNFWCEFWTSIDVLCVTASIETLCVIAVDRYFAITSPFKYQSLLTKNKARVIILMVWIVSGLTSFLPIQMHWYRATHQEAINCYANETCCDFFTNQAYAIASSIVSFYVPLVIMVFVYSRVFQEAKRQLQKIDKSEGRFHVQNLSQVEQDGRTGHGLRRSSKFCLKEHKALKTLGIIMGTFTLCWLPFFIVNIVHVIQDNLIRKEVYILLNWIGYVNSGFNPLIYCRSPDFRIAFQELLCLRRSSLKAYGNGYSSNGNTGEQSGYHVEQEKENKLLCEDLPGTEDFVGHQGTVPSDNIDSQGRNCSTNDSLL

[2] = biological target: human β1‐adrenoceptor (Homo sapiens, UniProt P08588); conditions: for IC50 (log) β1: printed as log IC50 bound (negative) in the Log KD β1 column, 3H-CGP12177
Sequence of human β1‐adrenoceptor (P08588 whole entry): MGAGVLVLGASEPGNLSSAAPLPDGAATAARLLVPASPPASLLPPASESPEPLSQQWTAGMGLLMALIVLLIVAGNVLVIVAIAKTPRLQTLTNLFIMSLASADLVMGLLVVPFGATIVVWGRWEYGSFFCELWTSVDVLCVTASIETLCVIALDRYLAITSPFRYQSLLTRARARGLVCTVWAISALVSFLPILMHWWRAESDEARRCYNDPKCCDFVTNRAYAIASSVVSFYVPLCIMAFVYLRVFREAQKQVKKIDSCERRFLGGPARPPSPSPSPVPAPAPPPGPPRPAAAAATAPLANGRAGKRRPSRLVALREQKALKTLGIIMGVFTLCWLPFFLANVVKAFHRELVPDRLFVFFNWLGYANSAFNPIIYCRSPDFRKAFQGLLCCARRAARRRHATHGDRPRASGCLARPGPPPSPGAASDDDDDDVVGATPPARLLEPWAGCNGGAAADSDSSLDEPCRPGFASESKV

[3] = biological target: T1, human α2A‐adrenoceptor (Homo sapiens, UniProt P08913); assay: ^3H‐rauwolscine whole cell competition binding, CHO‐α2A cells
T1 sequence (P08913 1-465): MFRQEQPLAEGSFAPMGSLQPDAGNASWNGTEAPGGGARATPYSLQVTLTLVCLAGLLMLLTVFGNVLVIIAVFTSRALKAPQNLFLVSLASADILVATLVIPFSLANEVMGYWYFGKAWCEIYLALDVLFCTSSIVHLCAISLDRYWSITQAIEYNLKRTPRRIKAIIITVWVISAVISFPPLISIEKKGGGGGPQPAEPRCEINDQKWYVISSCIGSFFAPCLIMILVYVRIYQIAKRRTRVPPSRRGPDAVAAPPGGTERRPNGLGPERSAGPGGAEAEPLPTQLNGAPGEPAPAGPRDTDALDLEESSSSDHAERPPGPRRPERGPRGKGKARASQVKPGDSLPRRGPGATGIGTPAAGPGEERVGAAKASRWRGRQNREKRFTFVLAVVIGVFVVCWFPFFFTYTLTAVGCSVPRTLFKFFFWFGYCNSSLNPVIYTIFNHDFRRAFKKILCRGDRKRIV

[4] = biological target: T2, human α2B‐adrenoceptor (Homo sapiens, UniProt P18089); assay: ^3H‐rauwolscine whole cell competition binding, CHO‐α2B cells; conditions: for IC50 (log) α2B: printed as log IC50 bound (negative) in the Log KD α2B column, 3H-rauwolscine
T2 sequence (P18089 1-450): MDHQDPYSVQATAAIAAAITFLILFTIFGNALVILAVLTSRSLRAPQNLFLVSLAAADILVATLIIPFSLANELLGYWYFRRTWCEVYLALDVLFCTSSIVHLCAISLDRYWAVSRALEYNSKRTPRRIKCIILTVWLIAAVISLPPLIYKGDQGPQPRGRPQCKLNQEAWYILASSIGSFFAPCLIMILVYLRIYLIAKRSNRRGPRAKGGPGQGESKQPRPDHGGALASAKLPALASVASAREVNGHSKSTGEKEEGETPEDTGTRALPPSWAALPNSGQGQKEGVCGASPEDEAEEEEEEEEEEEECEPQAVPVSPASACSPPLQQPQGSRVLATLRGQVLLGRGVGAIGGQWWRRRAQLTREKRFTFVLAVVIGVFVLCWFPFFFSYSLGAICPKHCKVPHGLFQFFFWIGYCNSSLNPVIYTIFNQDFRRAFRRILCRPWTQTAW

[5] = biological target: T3, human α2C‐adrenoceptor (Homo sapiens, UniProt P18825); assay: ^3H‐rauwolscine whole cell competition binding, CHO‐α2C cells
T3 sequence (P18825 1-462): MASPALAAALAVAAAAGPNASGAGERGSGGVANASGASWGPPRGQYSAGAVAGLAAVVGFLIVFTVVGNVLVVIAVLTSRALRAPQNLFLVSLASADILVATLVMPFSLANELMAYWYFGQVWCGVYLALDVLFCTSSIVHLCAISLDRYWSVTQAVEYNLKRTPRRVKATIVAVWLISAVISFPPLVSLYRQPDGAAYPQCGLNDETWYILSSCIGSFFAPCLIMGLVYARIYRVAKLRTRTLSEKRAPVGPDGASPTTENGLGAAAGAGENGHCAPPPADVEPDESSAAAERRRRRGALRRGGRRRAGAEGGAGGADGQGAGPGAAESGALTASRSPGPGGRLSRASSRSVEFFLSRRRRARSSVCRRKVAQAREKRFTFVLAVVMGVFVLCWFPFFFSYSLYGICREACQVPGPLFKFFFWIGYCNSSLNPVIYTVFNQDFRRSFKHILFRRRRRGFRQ

[6] = fold, higher affinity at α2A than α2B, 1 = no selectivity
[7] = given as log KD (negative values), 3H-rauwolscine whole cell binding, CHO cells, mean ± s.e.mean
[8] = fold, higher affinity at α2C than α2A, 1 = no selectivity
[9] = fold, higher affinity at α2C than α2B, 1 = no selectivity
[10] = given as log KD (negative values), 3H-CGP12177 whole cell binding, CHO cells, mean ± s.e.mean
[11] = log KD (negative), apparent KD: maximum concentration inhibited most but not all specific binding, IC50 from extrapolated curve
[12] = ^3H‐CGP12177 whole cell binding, log values, mean ± s.e.mean, ^app = apparent KD, 'no binding to' = log top concentration
[13] = proportion of site 1 in two-site fit
[14] = two-component inhibition, proportion of higher affinity site

## COc1ccccc1N1CCN(CC2CN3C(=O)N(C)c4ccccc4C3=N2)CC1 (stereo not shown) [2-MPMDQ]
[1]
  IC50 (log) β2: IC50>-5
[2]
  IC50 (log) β1: IC50>-5
[3]; [6]
  Selectivity ratio α2A vs α2B (α2A-selective): 7.1
[3]; [7]
  Log KD α2A: -6.79 ± 0.04
[4]; [7]
  Log KD α2B: -5.94 ± 0.09
[5]; [8]
  Selectivity ratio α2A vs α2C (α2C-selective): 5.1
[5]; [9]
  Selectivity ratio α2B vs α2C (α2C-selective): 36.3
[5]; [7]
  Log KD α2C: -7.50 ± 0.02

## O=C1Nc2ccccc2C2=NC(CN3CCN(c4ccccc4)CC3)CN12 (stereo not shown) [2-PMDQ]
[1]
  IC50 (log) β2: IC50>-4
[2]; [10]
  Log KD β1: No binding to -4
[3]; [6]
  Selectivity ratio α2A vs α2B (α2A-selective): 4.9
[3]; [7]
  Log KD α2A: -6.83 ± 0.05
[4]; [7]
  Log KD α2B: -6.14 ± 0.08
[5]; [8]
  Selectivity ratio α2A vs α2C (α2C-selective): 1.7
[5]; [9]
  Selectivity ratio α2B vs α2C (α2C-selective): 8.5
[5]; [7]
  Log KD α2C: -7.07 ± 0.02

## COC(=O)C1=C(C)NC(C)=C(C(=O)OCCCN2CCC(c3ccccc3)(c3ccccc3)CC2)[C@H]1c1cccc([N+](=O)[O-])c1 [2‐niguldipine]
[1]
  IC50: > 100 µM

## COc1ccccc1N1CCN(CCCNc2c(C)c(=O)n(C)c(=O)n2C)CC1 [5-methyl-urapidil]
[1]
  Log KD β2: -5.00 ± 0.07
[3]; [7]
  Log KD α2A: -5.18 ± 0.05
[4]; [7]
  Log KD α2B: -5.17 ± 0.05
[5]; [7]
  Log KD α2C: -5.81 ± 0.07

## COc1ccccc1N1CCN(CCCNc2c(C)c(=O)n(C)c(=O)n2C)CC1 [5‐methyl‐urapidil]
[1]
  Log KD β2: −5.00 ± 0.07
[3]
  Log KD α2A: −5.18 ± 0.05
[4]
  Log KD α2B: −5.17 ± 0.05
[5]
  Log KD α2C: −5.81 ± 0.07

## COc1ccccc1N1CCN(CCN2C(=O)c3ccccc3C(C)(C)C2=O)CC1 [ARC 239]
[1]
  IC50 (log) β2: IC50>-5
[2]
  IC50 (log) β1: IC50>-5
[3]; [7]
  Log KD α2A: -5.99 ± 0.06
[4]; fold, higher affinity at α2B than α2A, 1 = no selectivity
  Selectivity ratio α2A vs α2B (α2B-selective column): 21.4
[4]; fold, higher affinity at α2B than α2C, 1 = no selectivity
  Selectivity ratio α2B vs α2C (α2B-selective column): 1.2
[4]; [7]
  Log KD α2B: -7.32 ± 0.14
[5]; [8]
  Selectivity ratio α2A vs α2C (α2C-selective): 18.2
[5]; [7]
  Log KD α2C: -7.25 ± 0.14

## CC(C)(C)NCC(O)COc1cccc2[nH]c(=O)[nH]c12 (stereo not shown) [CGP12177]
[3]
  IC50: > 1000 µM
[4]; [7]
  Log KD α2B: No bind to -3
[4]; up to log concentration -3
  Binding at α2B (result in words): No binding -3
[5]
  IC50: > 1000 µM

## Cc1ccc(OCC(O)C(C)NC(C)C)c2c1CCC2 (stereo not shown) [ICI 118551]
[3]; [7]
  Log KD α2A: -5.03 ± 0.03
[4]
  IC50 (log) α2B: IC50>-4
[5]; [7]
  Log KD α2C: -5.05 ± 0.04

## CN1CC[C@]2(CCN3CCc4c(oc5ccccc45)[C@@H]3C2)N(C)C1=O [MK-912]
[1]
  IC50 (log) β2: IC50>-4
[2]
  IC50 (log) β1: IC50>-4
[3]
  Log KD α2A: -8.71 ± 0.05
  Selectivity ratio α2A vs α2B (α2A-selective): 3.6
[4]; [7]
  Log KD α2B: -8.16 ± 0.10
[5]
  Log KD α2C: -9.82 ± 0.11
  Selectivity ratio α2A vs α2C (α2C-selective): 12.9
  Selectivity ratio α2B vs α2C (α2C-selective): 45.7

## CC(C)(Cc1c[nH]c2ccc(Cl)cc12)NCCOc1ccccc1OCC1CC1 [RS17053]
[1]
  Log KD β2: −6.42 ± 0.06
[2]
  Log KD β1: −5.44 ± 0.04
[3]
  Log KD α2A: −6.20 ± 0.11
[3]; ratio of KD values
  Selectivity ratio α2A vs α2B (higher affinity for α2A): 3.5
[4]
  Log KD α2B: −5.65 ± 0.07
[5]
  Log KD α2C: −6.35 ± 0.08
[5]; ratio of KD values
  Selectivity ratio α2A vs α2C (higher affinity for α2C): 1.4
  Selectivity ratio α2B vs α2C (higher affinity for α2C): 5.0

## COc1cc2nc(N3CCN(C(=O)COc4c(OC)cccc4C(C)C)CC3)nc(N)c2cc1OC [Rec15-2615]
[1]
  IC50 (log) β2: IC50>-4
[2]
  IC50 (log) β1: IC50>-4
[3]; [11]
  Log KD α2A, apparent affinity (app): -5.53 ± 0.12^app
[4]
  IC50 (log) α2B: IC50>-4.5
[5]; [8]
  Selectivity ratio α2A vs α2C (α2C-selective): 10.7
[5]; [7]
  Log KD α2C: -6.56 ± 0.13

## CC(C)(C)NC[C@H](O)COc1cccc2[nH]c(C#N)cc12 [S-cyanopindolol]
[3]; [7]
  Log KD α2A: -5.56 ± 0.10
[4]; [11]
  Log KD α2B, apparent affinity (app): -4.82 ± 0.10^app
[5]; [7]
  Log KD α2C: -6.15 ± 0.07

## CC(C)OC(=O)c1cc2c(OCC(O)CNC(C)(C)C)cccc2[nH]1 (stereo not shown) [SDZ 21009]
[3]; log KD, negative sign, apparent KD from extrapolated curve, maximum concentration inhibited most but not all specific binding
  Log KD α2A (^app = apparent affinity): -4.86 ± 0.07^app

## CCC1(c2cnc[nH]2)Cc2ccccc2C1 [atipamezole]
[1]; [12]
  Log KD β2: No binding to −4.5
[1]; [10]
  Log KD β2: No binding to -4.5
[2]; [12]
  Log KD β1: No binding to −4.5
[2]; [10]
  Log KD β1: No binding to -4.5
[3]
  Kd: 0.00316 µM

## CN(C)CCCC1(c2ccc(F)cc2)OCc2cc(C#N)ccc21 (stereo not shown) [citalopram]
[1]; [12]
  Log KD β2: No binding to −4
[1]; [10]
  Log KD β2: No binding to -4
[2]; [12]
  Log KD β1: No binding to −4
[2]; [10]
  Log KD β1: No binding to -4
[3]
  IC50: > 100 µM
[5]
  IC50: > 100 µM

## CC(C)(C)NCC(O)COc1cccc2[nH]c(C#N)cc12 (stereo not shown) [cyanopindolol]
[3]
  Kd: 2.75 µM
[4]
  Kd: 15.1 µM
[5]
  Kd: 0.708 µM

## CCC1(C2=NCCN2)Cc2ccccc2O1 (stereo not shown) [eforaxan]
[1]; [12]
  Log KD β2: no binding to −3
[1]; [10]
  Log KD β2: no binding to -3
[2]; [12]
  Log KD β1: no binding to −3
[2]; [10]
  Log KD β1: no binding to -3

## CC(COc1ccccc1)N(CCCl)Cc1ccccc1 (stereo not shown) [phenoxybenzamine]
[4]
  % site 1 α2B (percentage through first component): −6.44 ± 0.11 −4.89 ± 0.08 51.4 ± 3.3% site 1
[4]; [13]
  % site 1, α2B: 51.4 ± 3.3%
[4]; [14]
  % site 1, α2B: 51.4 ± 3.3%
[5]
  % site 1 α2C (percentage through first component): −6.41 ± 0.11 −4.71 ± 0.13 74.1 ± 4.1% site 1
[5]; [13]
  % site 1, α2C: 74.1 ± 4.1%
[5]; [14]
  % site 1, α2C: 74.1 ± 4.1%

## O=C1Cc2cc(CCN3CCN(c4nsc5ccccc45)CC3)c(Cl)cc2N1 [ziprasidone]
[1]; [12]
  Log KD β2: No binding to −4
[1]; [10]
  Log KD β2: No binding to -4
[2]; [12]
  Log KD β1: No binding to −4
[2]; [10]
  Log KD β1: No binding to -4
